Test results from patent publication EP0217372A2, “Polyoxygenated labdane derivatives, process for their preparation and their use as medicaments” (HOECHST AKTIENGESELLSCHAFT, priority 1985, dated 1987).
Converted amounts (≈) assume the structure as drawn. Counter-ions that a name gives are not always drawn. Like-named read-outs stand apart in the source and are kept apart here. Blank lines part the entries; values can stand above or below the compound they belong to.

What was measured:
Meerschweinchen-Vorhof = experiment: Electrically stimulated left atrium, contractile force; details: contractile force of electrically stimulated left atrium, recorded 7 to 10 min
Excerpt: 2. Elektrisch stimulierter linker Vorhof
Es wird ein Meerschweinchen männlichen oder weiblichen Geschlechts mit einem Gewicht von 400 g getötet, das Herz entnommen und bei Zimmertemperatur in Ringerlösung eingebracht. Dann wird der linke Vorhof isoliert, an einem Organhalter befestigt und das Präparat in ein Organbad mit Ringerlösung von Zimmertemperatur gebracht. In das Organbad wird ein lebhafter Strom eines Gemisches von Kohlendioxid und Sauerstoff (95 % 02 und 5 % C02) geleitet. Dann wird der linke Vorhof elektrisch stimuliert. Anschließend wird aus einer der erfindungsgemäßen Verbindungen oder ih- rem Salz gegebenenfalls unter Verwendung von stöchiometrischer wäßriger 0,1 n HC1-Lösung eine wäßrige Lösung bekannter Konzentrationen hergestellt.
Diese Lösung wird dem Bad zugesetzt und die Kontraktionskraft des Vorhofes 7 bis 10 Minuten lang auf einem 4-Kanal-Kohden-Rekorder registriert. Die Wirkung wird aus den ermittelten Daten als EC50 berechnet angegeben.

Augeninnendruck (IOP) = experiment: Intraocular pressure in the conscious rabbit; type: in vivo, Kaninchen; details: for Senkung des IOP: percent decrease from baseline; for Dauer: duration of the IOP-lowering effect
Excerpt: Messung des Augeninnendruckes am wachen Kaninchen
Für die Untersuchung wird ein männliches oder weibliches Kaninchen mit einem Gewicht von 2 bis 3 k^g ausgewählt. Der Augeninnendruck (IOP) wird nach vorheriger Hornhautanästhesie mit 2 % Novocain-Lösung mit einem Schioetz-Tonometer gemessen. Zur Herstellung einer 2 %igen wäßrigen Lösung wird eine Verbindung der Formel I unter Verwendung von stöchiometrischer wäßriger 0,1 n HCI-Lösung oder ein Salz einer solchen Verbindung direkt in Wasser gelöst. […] Der IOP wird in Abständen von 0,5, 1, 2, 3, 4 und 5 Stunden gemessen. Die prozentuale Abnahme des IOP wird anhand des Ausgangswertes berechnet.

systolischer Blutdruck = experiment: Blood pressure lowering in conscious spontaneously hypertensive rats (tail cuff); type: in vivo, SH-Ratten; details: 25 mg/kg oral once daily for 5 days; difference from baseline, 2 hours after dosing
Excerpt: Blutdrucksenkung bei wachen hypertonen Ratten
Die blutdrucksenkende Wirkung wird bei wachen Ratten mit spontaner Hyperonie (SH) ermittelt. Eingesetzt werden dazu männliche SH-Ratten (250 - 300 g, 12 - 16 Wochen alt) des Wistar-Okamoto-Stammes aus eigener Züchtung. Vor der Blutdruckmessung werden die Ratten 10 Minuten bei 37'C in einer Wärmekammer aufgewärmt. Der systolische Blutdruck wird bei den wachen Ratten mittels Schwanzmanschetten-Methode gemessen, wobei ein piezoelektrischer Kristall zur Anzeige des Druckpulses, ein aneroides Manometer zur Druckmessung und ein Kardioskop (BPL-India) zur Anzeige des Verschwindens und/oder Auftretens des Druckpulses verwendet wird.
Die zu testenden erfindungsgemäßen Verbindungen werden unter Verwendung von stöchiometrischer 0,1 n HCl-Lösung bzw. die Salze direkt in Wasser gelöst und in dieser Form den SH-Ratten 5 Tage lang einmal täglich in einer Dosierung von 25 mg/kg oral verabreicht. Eine Gruppe dient als Kontrolle und erhält das Vehikel. Der systolische Blutdruck wird vor der ersten Verabreichung des Medikamentes und 2 Stunden danach registriert. Eine Senkung des systolischen Blutdruckes ist die Differenz zwischen dem Blutdruck nach der Behandlung und dem Ausgangswert.

Narkotisierter Hund = experiment: In vivo test in the anaesthetised dog (left ventricular dp/dt max); design: species or system Beagle-Hunde; details: injected into the femoral vein, pentobarbital anaesthesia
Method: 3. In vivo-Tests am narkotisierten Hund
Beagle-Hunde beiderlei Geschlechts mit einem Gewicht zwischen 10 und 15 kg werden mit Na-Pentobarbitol (35 mg/kg, i.v.) narkotisiert. Nach Einführen eines Endotrachealtubus werden die Femoralarterie und -vene mit einer Kanüle zur Messung des Blutdrucks bzw. zur Verabreichung von Medikamenten versehen. Der Druck des linken Ventrikels wird mit Hilfe eines Millar-Katheters gemessen und dp/dt max wird berechnet mit einem Hugo-Sachs-Differentiometer. Die Herzfrequenz wird mit Hilfe eines Kardiotachometers aus ECG-Signalen bestimmt. Alle kontinuierlich gemessenen Parameter werden mit einem Hellige-Sechs-Kanal-Recorder aufgezeichnet.
Die zu untersuchenden erfindungsgemäßen Verbindungen werden in destilliertem Wasser gelöst. In allen Experimenten werden 1%ige Lösungen verwendet. Die Lösungen werden in die Femoralvene injiziert und die Dosis-Wirkung-Relation berechnet.

[1] = system: Isoliertes Meerschweinchenherz; experiment: Isolated guinea pig heart (Langendorff method); design: species or system Meerschweinchen; details: Cavia porcellus; for activation at 0.01 mg: Dosis 10 µg injected into the aorta; for activation at 0.03 mg: Dosis 30 µg injected into the aorta
Excerpt: 1. Isoliertes Meerschweinchenherz (Langendorff-Methode)
Es wird ein Meerschweinchen männlichen oder weiblichen Geschlechts mit einem Gewicht zwischen 300 und 400 g getötet und das Herz mit einem kleinen Teil der Aorta entnommen. Das Herz wird umgehend in einen Perfusionsapparat gebracht, in dem die Aorta auf der Glaskanüle fixiert wird. Die aus oxygenierter Ringerlösung bestehende Perfusionslösung wird bei konstantem Druck aus dem Behälter zugeführt, der durch aus dem Thermostat zirkulierendes Wasser auf 37°C angewärmt wird. Die zu untersuchenden Verbindungen der Erfindung werden zur Herstellung einer Lösung mit bekannter Konzentration unter Verwendung stöchiometrischer 0,1 n HC1 bzw. deren Salze direkt in Wasser gelöst. Die erhaltene Lösung wird durch eine Polyäthylenkanüle direkt in die Aorta injiziert und die Wirkungen auf die Kontraktionskraft, Herzfrequenz und Koronardurchblutung auf einem 3-Kanal-Physioscribe-Rekorder aufgezeichnet. Die prozentuale Zu- oder Abnahme der inotropen Wirkung wird nach dem intialen Ausgangswert berechnet.

[2] = Dosis 2 %, 100 µl instilled into one eye
[3] = read-out: % Zunahme der Chronotropen Wirkung
[4] = read-out: % Zunahme der Koronardurchblutung
[5] = relative to initial baseline, read-out: % Zunahme der Inotropen Wirkung

Compound: C=CC1(C)CC(=O)C2(O)C(C)(O1)C(O)C(OC(=O)CN1CCCC(C)C1)C1C(C)(C)CCC(O)C12C (stereo not shown)
- EC50 (Meerschweinchen-Vorhof): 30 µg/mL (≈ 59.1 µM)

Compound: C=CC1(C)CC(=O)C2(O)C(C)(O1)C(OC(=O)CCCCN1CCCCC1)C(O)C1C(C)(C)CCC(O)C12C (stereo not shown)
- EC50 (Meerschweinchen-Vorhof): 30 µg/mL (≈ 56 µM)

Compound: C=CC1(C)CC(=O)C2(O)C(C)(O1)C(OC(=O)Cn1nnc3ccccc31)C(O)C1C(C)(C)CCC(O)C12C (stereo not shown)
- EC50 (Meerschweinchen-Vorhof): > 30 µg/mL

Compound: C=CC1(C)CC(=O)C2(O)C(C)(O1)C(O)C(OC(=O)CN(C)C1CCCCC1)C1C(C)(C)CCC(O)C12C (stereo not shown)
- Senkung des IOP (Augeninnendruck (IOP); [2]): 27.5%
- Dauer (Augeninnendruck (IOP); Dosis 2 %): 6 Std.

Compound: C=CC1(C)CC(=O)C2(O)C(C)(O1)C(O)C(O)C1C(C)(C)CCC(OC(=O)CN3CCCCC3)C12C (stereo not shown)
- Senkung des IOP (Augeninnendruck (IOP); [2]): 18%
- Dauer (Augeninnendruck (IOP); Dosis 2 %): 2 Std.

Compound: C=CC1(C)CC(=O)C2(O)C(C)(O1)C(OC(=O)Cn1cnc3c1c(=O)n(C)c(=O)n3C)C(O)C1C(C)(C)CCC(O)C12C (stereo not shown)
- Senkung des IOP (Augeninnendruck (IOP); [2]): 21%
- Dauer (Augeninnendruck (IOP); Dosis 2 %): > 6 Std.

Compound: C=CC1(C)CC(=O)C2(O)C(C)(O1)C(O)C(OC(=O)CN1CCCCC1)C1C(C)(C)CCC(O)C12C (stereo not shown)
- Senkung des systolischen Blutdruckes (systolischer Blutdruck): 14

Compound: C=CC1(C)CC(=O)C2(O)C(C)(O1)C(OC(=O)CN1CCCCC1)C(O)C1C(C)(C)CCC(O)C12C (stereo not shown)
- Senkung des systolischen Blutdruckes (systolischer Blutdruck): 35

Compound: C=CC1(C)CC(=O)C2(O)C(C)(O1)C(OC(=O)C(C)N1CCSCC1)C(O)C1C(C)(C)CCC(OC(=O)C(C)N3CCSCC3)C12C (stereo not drawn) [6β-9α-Dihydroxy, 1α,7β-di(α'-thiomorpholinopropionyloxy)-8,13-epoxy-labd-14-en-one-dihydrochlorid-trihydrat]
- Senkung des IOP (Augeninnendruck (IOP); Dosis 1 %): 19%
- Dauer (Augeninnendruck (IOP); Dosis 1 %): 6 Std.

Compound: C=CC1(C)CC(=O)C2(O)C(C)(O1)C(O)C(OC(=O)CCCCN1CCCCC1)C1C(C)(C)CCC(O)C12C (stereo not shown) [the 5th table, row 7]
- Senkung des IOP (Augeninnendruck (IOP); Dosis 1 %): 23%
- Dauer (Augeninnendruck (IOP); Dosis 1 %): 6 Std.

More lines, main results first:

- EC50 (Meerschweinchen-Vorhof): 1.9 µg/mL (≈ 3.74 µM)
Compound: C=CC1(C)CC(=O)C2(O)C(C)(O1)C(O)C(OC(=O)CN1CCCCCC1)C1C(C)(C)CCC(O)C12C (stereo not shown)

- EC50 (Meerschweinchen-Vorhof): 0.9 µg/mL (≈ 1.49 µM)
Compound: C=CC1(C)CC(=O)C2(O)C(C)(O1)C(OC(=O)C(C)n1cnc3c1c(=O)n(C)c(=O)n3C)C(O)C1C(C)(C)CCC(O)C12C (stereo not shown)

- Meerschweinchen-Vorhof EC50 (Meerschweinchen-Vorhof): 10 µg/mL
Compound: C=C[C@@]1(C)CC(=O)[C@]2(O)[C@@]3(C)[C@@H](O)CCC(C)(C)[C@@H]3[C@H](O)[C@H](OC(=O)C(C)N3CCOCC3)[C@@]2(C)O1 (stereo partly shown) [the 1st table, row 7]
- ED50 (Narkotisierter Hund; Canis lupus familiaris, iv): 0.04 mg/kg
- activation at 0.01 mg [1, 3]: 20%
- activation at 0.01 mg [1, 4]: -5%
- activation at 0.01 mg [1, 5]: 18%

- Meerschweinchen-Vorhof EC50 (Meerschweinchen-Vorhof): 0,266 µg/ml
Compound: C=C[C@@]1(C)CC(=O)[C@]2(O)[C@@]3(C)[C@@H](O)CCC(C)(C)[C@@H]3[C@H](O)[C@H](OC(=O)C(C)N3CCOCC3)[C@@]2(C)O1 (stereo partly shown) [the 2nd table, row 3]
- Narkotisierter Hund dp/dt max ED50 (Narkotisierter Hund): 0,04 mg/kg
- activation at 0.03 mg [1, 3]: 32%
- activation at 0.03 mg [1, 4]: 44%
- activation at 0.03 mg [1, 5]: 20%

- EC50 (Meerschweinchen-Vorhof): 30 µg/mL (≈ 56 µM)
Compound: C=CC1(C)CC(=O)C2(O)C(C)(O1)C(O)C(OC(=O)CCCCN1CCCCC1)C1C(C)(C)CCC(O)C12C (stereo not shown) [the 4th table, row 5]
